± gives the expanded uncertainty stated by the source. Blank lines part the entries; values can stand above or below the compound they belong to.
What was measured:
[1] = 298.15 K, Liquid; for viscosity: Capillary tube (Ostwald / Ubbelohde) method
[2] = 298.15 K; 101.7 kPa; Liquid mixture 1; Pendant drop shape

Structure (SMILES): Cc1ccccc1 [toluene]
viscosity ([1]; 101 kPa): 0.554 ± 0.04 mPa·s
mass density ([1]; 101.7 kPa, Vibrating tube method): 860.8 ± 2 kg/m3

Structure (SMILES): Cc1ccccc1 [toluene] + O
interfacial tension [2]: 36.2 ± 3.6 mN/m

viscosity ([1]; 101.7 kPa): 0.8958 ± 0.041 mPa·s
Structure (SMILES): O [water]

Reference: the NIST ThermoML archive (doi:10.1021/acs.jced.7b00505)
